“Also recorded” adds a separate entry of the source.
How the values were obtained:
[1] = Phase 1 12-week NAFLD study (Example 1): safety, tolerability, serum lipids, glycemic control, heart rate; type: in vivo, human; details: for AE leading to treatment discontinuation, number of subjects: gastrointestinal intolerance
From the text: Provided herein is disclosure of a Phase 1, multicenter, randomized, double-blind, placebo-controlled study to assess the effects of Pemvidutide (also termed herein as ALT-801), the safety of Pemvidutide and effects on hepatic fat fraction, anthropometric parameters, lipid metabolism, inflammatory markers and fibrosis markers in diabetic and non-diabetic (type 2 diabetes) overweight and obese (BMI 28.0 kg/m^2) subjects with NAFLD. This study was designed to assess changes in hepatic fat fraction by MRI-PDFF (magnetic resonance imaging-proton density fat fraction) in diabetic and non-diabetic overweight and obese subjects with NAFLD after 12 weeks of ALT-801 treatment. The trial was conducted without adjunctive diet and exercise interventions. The study assessed changes in body weight, lipid metabolism, metabolic markers, and inflammatory markers and safety and tolerability of ALT-801 after 12 weeks of treatment. Subjects were stratified for the presence or absence of diabetes at baseline. Fibroscan and cT1 assessments evaluated changes in liver inflammatory and fibrotic activity at the end of 12 weeks of treatment.
The study, described in this example, was carried out in 94 subjects overweight and obese (body mass index [BMI] ≥28.0 kg/m^2) Type 2 diabetic and non-diabetic subjects with nonalcoholic fatty liver disease (NAFLD) over about 4.5 months, including up to a 35-day screening period, and 85-day treatment period and a 25-day follow-up period, with treatment with ALT-801 (a composition comprising SEQ ID NO.: 1, “study medication”) or placebo administered by subcutaneous (SC) injection once weekly for up to twelve (12) doses.
The safety objective of this study was to assess the safety and tolerability of ALT-801 in 18-65 years old subjects with NAFLD (NAFLD without significant fibrosis, defined as FibroScan® controlled attenuation parameter (CAP) ≥280 dB/m and liver stiffness measurement (LSM)<10 kPa (i.e., indicating the absence of significant fibrosis), magnetic resonance imaging derived proton density fat fraction (MRI-PDFF) ≥10%), hemoglobin Alc (HbAlc) of less than 9.5%, and alanine aminotransferase (ALT) or aspartate aminotransferase (AST) values of ≤[…]. The pharmacodynamic (PD) objectives of this study were to evaluate the effects of ALT-801 on hepatic fat fraction, anthropometric parameters, lipid metabolism, metabolic markers, inflammatory markers, fibrosis markers, and lipotoxicity markers. The pharmacokinetic (PK) objectives of this study were to evaluate the effects of ALT-801 and metformin exposure (drug interactions) on the subjects (e.g., ALT-801 and metformin concentrations in blood over time).
After providing informed consent, subjects underwent a screening period of up to 35 days. Subjects were instructed on how to maintain their normal diets, alcohol consumption and physical activities and not to start any new diets, supplements, or exercise programs at any time while participating in the study. Counseling was provided on diet and exercise on the Day 1 visit and reinforced at subsequent visits. Study subjects were randomized 1:1:1:1 to one of the following treatment arms: 1) ALT-8011.2 mg SC once weekly for 12 weeks; 2) ALT-8011.8 mg SC once weekly for 12 weeks; 3) ALT-801 0.6 mg SC at week 1, 1.2 mg SC at week 2, 1.8 mg SC once weekly for 2 weeks (weeks 3 and 4), and 2.4 mg SC once weekly for weeks 5 through 12; or, 4) placebo SC once weekly for 12 weeks. Subjects were stratified by presence or absence of diabetes at baseline. Subjects in the treatment arm with a final therapeutic dose of 2.4 mg underwent a rapid 4-week dose escalation to improve tolerability and reduce the possibility of adverse events. […] See FIG. 7, second 2.4 mg column as compared to the first 2.4 mg column (this study). See WO 2022/125598. […]

[2] = test system: liver fat content; assay: Phase 1b 24-week NAFLD study (Example 3): liver fat content and liver volume by MRI-PDFF; type: in vivo, human
From the text: Provided herein is disclosure of a 12-week extension study of the study provided in Example 1, providing a 24-week a Phase 1b, randomized, double-blind, placebo-controlled study to assess the effects of pemvidutide (also termed herein as ALT-801), the safety of pemvidutide and effects on weight loss, hepatic fat fraction, anthropometric parameters, lipid metabolism, as well as inflammatory, fibrosis and other markers in diabetic and non-diabetic (type 2 diabetes) overweight and obese (BMI≥28.0 kg/m^2) subjects with NAFLD (defined as liver fat content (LFC) by MRI-PDFF ≥10%; absence of significant fibrosis, defined as FibroScan® LSM ≤10 kPa), alanine aminotransferase (ALT) and aspartate aminotransferase (AST) laboratory values of ≤75 IU/L and HbA1c <9.5. Men and women aged 18-65 years were studied. Diabetic subjects were defined as those that have undergone stable dose (≥3 months) metformin or SLGT-2 therapy and no use of insulin, sulfonylureas, DPP-4, GLP-1 treatment; Ninety-four (94) subjects were enrolled in the initial 12-week Phase 1b NAFLD trial and 83 subjects who completed were invited to receive a total of 12 additional weeks of blinded treatment. Of those subjects, 66 consented to rollover, of which 64 were eligible to participate.
The primary endpoint of this study was a reduction in liver fat content (LFC) by MRI-PDFF at Week 24 compared to Week 0 (zero). Key secondary endpoints include percent (%) weight loss at Week 24 compared to Week 0 (zero), and liver inflammation by alanine aminotransferase (ALT) levels and corrected T1 (cT1) imaging at Week 24 as compared to Week 0 (zero). Adverse events (AEs), including serious and severe AEs, AEs leading to discontinuation, GI tolerability, vital signs, and glycemic control including fasting glucose and HbA1c levels were also measured.

Q: With CC[C@H](C)[C@H](NC(=O)[C@H](Cc1ccccc1)NC(=O)[C@H](CCC(=O)O)NC(=O)[C@@H]1CCCCNC(=O)CC[C@H](NC(=O)[C@H](CC(=O)O)NC(=O)[C@H](CC(C)C)NC(=O)[C@H](Cc2ccc(O)cc2)NC(=O)[C@H](CCCCN)NC(=O)[C@H](CO)NC(=O)[C@H](Cc2ccc(O)cc2)NC(=O)[C@H](CC(=O)O)NC(=O)[C@H](CO)NC(=O)[C@@H](NC(=O)[C@H](Cc2ccccc2)NC(=O)[C@@H](NC(=O)CNC(=O)[C@H](CCC(N)=O)NC(=O)C(C)(C)NC(=O)[C@@H](N)Cc2c[nH]cn2)[C@@H](C)O)[C@H](C)O)C(=O)N[C@@H](CCCCNC(=O)C2O[C@@H](OCCCCCCCCCCCCCCCCCC(=O)O)C(O)C(O)[C@@H]2O)C(=O)N[C@@H](C)C(=O)N[C@@H](C)C(=O)N1)C(=O)N[C@@H](CCC(N)=O)C(=O)N[C@@H](Cc1c[nH]c2ccccc12)C(=O)N[C@@H](CC(C)C)C(=O)N[C@@H](CC(C)C)C(=O)N[C@@H](CCC(N)=O)C(=O)N[C@H](C(N)=O)[C@@H](C)O (stereo partly drawn) [ALT-801, Pemvidutide] as the compound, how does the “AE leading to treatment discontinuation, rate” value ([1]; 1.8 mg arm, 12 weeks) read?
A: 4.3%

Q: What about the “AE leading to treatment discontinuation, number of subjects” value ([1]; 1.8 mg arm, 12 weeks) of the same compound?
A: 1

Q: What about the “AE leading to treatment discontinuation, rate” value ([1]; 2.4 mg arm, 12 weeks) of the same compound?
A: 4.2%

Q: And the “AE leading to treatment discontinuation, number of subjects” value ([1]; 2.4 mg arm, 12 weeks)?
A: 1

Q: And the “AEs leading to treatment discontinuation (in words)” value ([1]; 12 weeks)?
A: very low rates

Q: And the “clinically significant ALT elevations (3-fold or greater the upper limit of normal)” value ([1]; 12 weeks)?
A: No clinically significant ALT elevations; also recorded: no three-fold or greater ALT elevations were observed

Q: What about the “glycemic control (HbA1c, fasting glucose)” value ([1]; 12 weeks) of the same compound?
A: unaffected

Q: What about the “increases in heart rate (HR)” value ([1]; 12 weeks) of the same compound?
A: 1-3 beat-per-minute (bpm)

Q: And the “serious and severe adverse events” value ([1]; 12 weeks treatment)?
A: No serious adverse events (AEs), severe AEs were observed; also recorded: no severe or serious AEs were observed

Q: What about the “symptoms experienced by subjects (severity)” value ([1]; 12 weeks treatment) of the same compound?
A: predominantly mild and transient

Q: And the serum lipids ([1]; after 12 weeks)?
A: not significantly altered

Q: And the tolerability ([1]; each treatment arm (FIG. 7))?
A: well tolerated

Q: And the “mean absolute reduction in liver fat (MRI-PDFF)” value (“mean absolute reduction” for short) ([2]; 1.2 mg per week, week 24)?
A: 11.2%

Q: And the “mean relative reduction in liver fat (MRI-PDFF)” value (“mean relative reduction” below) ([2]; 1.2 mg per week, week 24)?
A: 56.3%

Q: And the “liver fat of an exemplary subject (MRI-PDFF)” value ([2]; 1.8 mg dose, Week 24, 32.3% at baseline)?
A: 1.7%

Q: And the “mean absolute reduction” value ([2]; 1.8 mg per week, week 24)?
A: 17%

Q: And the “mean relative reduction” value ([2]; 1.8 mg per week, week 24)?
A: 75.2%

Q: What about the “proportion of subjects with normalization (<=5%) in liver fat content” value ([2]; 1.8 mg, week 24) of the same compound?
A: 53.8%

Q: And the “mean absolute reduction” value ([2]; 2.4 mg per week, week 24)?
A: 15.6%

Q: And the “mean relative reduction” value ([2]; 2.4 mg per week, week 24)?
A: 76.4%

Q: And the “proportion of subjects with normalization (<=5%) in liver fat content” value ([2]; 2.4 mg, week 24)?
A: 45.3%

Q: And the “relative liver fat reductions (study conclusion)” value ([2]; 24 weeks)?
A: greater than 75%

Q: And the “liver volume (MRI-PDFF)” value ([2]; all doses, week 24)?
A: robust reduction in liver volume

Q: What about the “percentage of subjects achieving at least 30% and 50% reduction in liver fat content vs placebo” value ([2]; all doses, week 24) of the same compound?
A: highly significant

From patent publication US20240269238A1, “Therapeutic Regimens and Methods for Reducing Body Weight in a Subject with Fatty Liver Disease using a GLP-1R and GCGR Agonist” (Spitfire Pharma LLC, priority 2022, published 2024)
